# In patent US20260083697A1, “COMPOSITION AND USE OF SAME FOR CONTROLLING INFECTIONS IN AQUATIC ORGANISMS” (priority 2022, published 2026):
# What was measured:
# fish = assay: Toxicity of commercial fatty acid ethyl esters to fish over 48 h; assay type: in vivo; conditions: at least 48 h
# Gyrodactylus turnbulli = assay type: cell-based; conditions: for antiparasitic activity of pure commercial ethyl ester: commercial ethyl ester form, Kolliphor and sonication
# From the text: FIGS. 2A-2C include graphs showing antiparasitic effect of residue extract and preparations (FFA & FAEE) with and without the addition of the food-grade detergent Kolliphor (K) and sonication(S) prior to analysis. […] Gyrodactylus turnbulli was exposed to the following preparations: (2A) residue extract (RE) and RE with Kolliphor and sonication (RE-K-S); (2B) FFA and FFA with Kolliphor and sonication (FFA-K-S); and (2C) FAEE with Kolliphor and sonication (FAEE-K-S). The numbers represent the tested concentrations of the solution applied at μL mL^−1. n=3 wells with at least five observed parasites per well.
# FIG. 5 includes a vertical bar graph showing dose-dependent antiparasitic effect of fatty acids in their ethyl ester form as tested in situ. Selected were the four FAs that appeared at the highest level in the residue and its extracts and preparations, as pure commercial compounds: myristic acid (14:0), palmitic acid (16:0), palmitoleic acid (16:1n7), and EPA (20:5n3). The analysis was carried out with the addition of Kolliphor (K) and sonication (S). Time to reach 50% parasite mortality was recorded.
# FIG. 11A-11B include graphs showing in-situ antiparasitic effect against Gyrodactylus by commercial FAEEs. Gyrodactylus was exposed by commercial FAEEs at 18.75, 37.5, and 75 μM along with addition of 1% Kolliphor (K) and sonication(S).
# An in-situ assay was carried out, as described previously (Kim et al., 2021). Briefly, infected guppies (as confirmed by observation under a stereomicroscope (Richards and Chubb 1996)) were anesthetized with 250 ppm of Sedanol (Stockton-Aquamor Ltd., Israel) (Zorin et al., 2019) followed by euthanasia (brain pithing). Tail fin clips with more than four parasites were excised and transferred, using watchmaker's forceps, to a single well of a 24-well plate containing standardized water (STW: dechlorinated tap water with Na2S2O3 at 0.37 mg L^−1 followed by autoclaving). Ethanol and STW, as well as the relevant solvents and preparation protocol used for extraction, were used as negative controls in each trial. Parasites were observed under an inverted microscope (Axiovert 40 CFL, Carl Zeiss AG) for 4 h, at intervals ranging from 5 to 30 min, during which detached and dead parasites were recorded. A total of 12-15 parasites (with three replicates) were analyzed for each treatment concentration.
# Residue extract and preparations were tested at the following concentrations: residue extract at 2.5, 5 and 10 μL mL^−1, and FFA and FAEE at 2.5 and 5 μL mL^−1 (in ethanol). Selected pure active compounds were analyzed, based on the analysis of the FAEE composition. These included the ethyl esters of the following fatty acids: myristic acid (14:0), palmitic acid (16:0), palmitoleic acid (16:1n7), and EPA ([…]) (obtained from Nu-Check, USA). Tested concentrations were calculated based on the amount of active compound in the FA profile of ethyl esters according to the GC-results.
SMILES,toxicity to fish (fish; 7.3 μM to 14.5 μM),antiparasitic activity of pure commercial ethyl ester (Gyrodactylus turnbulli),further results
"CCCCCCCCCCCC(=O)OCC [12:0, ethyl laurate]",–,–,toxicity to fish (fish; 9.375 μM to 37.5 M): non-toxic
"CC/C=C\C/C=C\C/C=C\CCCCCCCC(=O)OCC [18:3n3, ethyl alpha linolenate]",non-toxic,–,–
"CCCCC/C=C\C/C=C\CCCCCCCC(=O)OCC [18:2n6, ethyl linoleate]",non-toxic,–,–
"CCCCC/C=C\C/C=C\C/C=C\CCCCC(=O)OCC [18:3n6, ethyl gamma linolenate]",non-toxic,–,–
"CCCCCCCCCCCCCC(=O)OCC [14:0, ethyl myristate]",non-toxic,activity,–
"CCCCCCCCCCCCCCCC(=O)OCC [16:0, ethyl palmitate]",non-toxic,activity,–
"CCCCCCCCCC(=O)OCC [10:0, ethyl decanoate]",–,–,toxicity to fish (fish; 18.75 μM to 37.5 μM): non-toxic
"CCCCCCCCC(=O)OCC [9:0, ethyl nonanoate]",–,–,toxicity to fish (fish; 18.75 μM to 37.5 μM): non-toxic
CC/C=C\C/C=C\C/C=C\C/C=C\C/C=C\CCCC(=O)OCC [20:5n3],non-toxic,activity,"effect on the parasite at low concentrations (Gyrodactylus turnbulli; 3 and 6 μL mL^−1): inducing parasite mortality; dose dependence of antiparasitic effect (Gyrodactylus turnbulli; 3 to 24 μL mL^−1): dose-dependent effect; relative activity (time to 50% parasite mortality) (Gyrodactylus turnbulli; 12 and 24 μL mL^−1, compared with the other three FAEEs): most active"
